Assay results published in patent US20140018424A1, “PREVENTIVE EFFECT OF CITRULLINE ON THE SPONTANEOUS DEVELOPMENT OF TUMORS” (UNIVERSITE PARIS DESCARTES, priority 2011, published 2014).

Legend:
Type in all cases: in vivo, male Sprague-Dawley rats
aged healthy rats = assay: Mortality over 12 weeks in aged healthy rats fed supplemented diet; settings: rats aged 20 months, supplemented diet ad libitum for 12 weeks; NEAA vs CIT p<0.05
Description: (§1) Thirty-nine male Sprague-Dawley rats aged 20 months and free of tumours (Charles River, L'Arbresle, France) are used. They are raised individually in cages, at a temperature of 20-23° C., subjected to a cycle of 12 hours of light alternating with 12 hours of darkness. They have free access to water. For the acclimatization period, all the rats are fed a standard diet (59% carbohydrates, 3% lipids, 17% proteins and 21% fibres) ad libitum (UAR of 0.4 Dietex, Villemoisson-sur-Orge, France) for 2 weeks. The animals are cared for in accordance with French regulations on the protection of animals used for experimental and scientific purposes (D 2001-486) and with the Regulations of the European Community (Official Journal of the European Community, L538 12:18:1986).
(§2) After the acclimatization period, the rats are randomly divided into 2 groups.
(§3) In the “citrulline” group (CIT, n=19), the rats are fed ad libitum for 12 weeks with a citrulline-based supplement (1 g.kg^−1.day^−1 of citrulline) mixed with their standard diet. The dose of citrulline is calculated by extrapolation of the doses used in humans, taking into account the fact that the metabolic rate and nitrogen requirements are 10 times greater in rodents than those measured in humans and very close to the dose of arginine administered to rats for 12 weeks by Jobgen W. et al. (J Nutr 2009;139:230-7). […]

tumours = assay: Incidence of tumours after euthanasia in aged rats; settings: after euthanasia at 12 weeks; NEAA vs CIT p<0.05
Description: as §1, §2, §3

[1] = Body weight of aged rats before and after 12 weeks of supplementation
polyamines = assay: Level of polyamines in liver, jejunum and ileum of aged rats
Description: as §1, §2
In the “citrulline” group (CIT, n=19), the rats are fed ad libitum for 12 weeks with a citrulline-based supplement (1 g.kg^−1.day^−1 of citrulline) mixed with their standard diet. The dose of citrulline is calculated by extrapolation of the doses used in humans, taking into account the fact that the metabolic rate and nitrogen requirements are 10 times greater in rodents than those measured in humans and very close to the dose of arginine administered to rats for 12 weeks by Jobgen W. et al. (J Nutr 2009;139:230-7). This dose corresponds to approximately 9% of the nitrogen intake, i.e. approximately 7g/day in the healthy adult volunteer.
In the “non-essential amino acids” group (NEAA, n=20), the rats are fed ad libitum for 12 weeks with a standard food rendered isonitrogenous with respect to the citrulline group by the addition of non-essential amino acids: […], serine, alanine and glycine in an equimolar ratio.
The rats are euthanized in the post-absorptive state after treatment for 12 weeks. The statistical studies are carried out using Statview® software

## NC(=O)NCCCC(N)C(=O)O (stereo not drawn) [CIT, 2-amino-5-(carbamoylamino)pentanoic acid]
Aged healthy rats
  mortality over 12 weeks (dead rats/rats in group): 0/19
tumours
  incidence of tumours (rats with tumours/rats assessed): 0/19
[1]; 12 weeks, 1 g.kg^-1.day^-1 in the diet
  effect of supplementation on body weight: does not affect the body weight
[1]; after the 12-week supplementation, NEAA vs CIT N.S
  Final body weight: 630 ± 13
[1]; before the 12-week supplementation, NEAA vs CIT N.S
  Initial body weight: 669 ± 16
polyamines; 12 weeks of supplementation
  effect of supplementation on putrescine: significant increase
polyamines; after 12 weeks, p 0.028
  Ileum putrescine: 79.8 ± 25
polyamines; after 12 weeks, p 0.034
  Liver putrescine: 17.1 ± 14.5
polyamines; after 12 weeks, p NS
  Ileum spermidine: 374 ± 70
  Ileum spermine: 203 ± 43
  Jejunum putrescine: 82.7 ± 36
  Jejunum spermidine: 478 ± 200
  Jejunum spermine: 297 ± 88
  Liver spermidine: 372 ± 90
  Liver spermine: 557 ± 245
